# Reference: patent publication US12723063B2, “GIPR-agonist compounds” (Eli Lilly and Company, priority 2019, dated 2026)
# *1 amine or outer side, *2 acyl side, *3 side chain or, on linkers, in order; H or OH if unused. Where a SMILES comes first, the peptide text is derived from it. Side-chain parts run from the residue outwards. [ ]: non-standard residue; d: D form. The star is where a group is joined. C20 diacid = O=C(O)CCCCCCCCCCCCCCCCCCC(=O)*; C18 diacid = O=C(O)CCCCCCCCCCCCCCCCC(=O)*; αMePhe(2-F) = C[C@](N)(Cc1ccccc1F)C(=O)O; γGlu = O=C(O)[C@H](CCC(=O)[*:2])N[*:1]; 4Pal = N[C@@H](Cc1ccncc1)C(=O)O; αMeL = CC(C)C[C@](C)(N)C(=O)O; Iva = CC[C@](C)(N)C(=O)O; AEEA = NCCOCCOCC(=O)O; Aib = CC(C)(N)C(=O)O
# What was measured:
# human GcgR = target: T1, human GcgR (Homo sapiens, UniProt P47871); assay: [125I]-Glucagon binding, SPA with WGA beads, 0.1% bacitracin; settings: geometric mean, read-out: hGcgR Ki
# T1 construct: expressed in transfected cells; crude membranes
# Summary of the method: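 SPA competition binding with WGA beads on crude membranes from HEK293 cells stably expressing hGcgR. Buffer: 25 mM HEPES pH 7.4, 2.5 mM CaCl2, 1 mM MgCl2, 0.1% bacitracin, 0.003% Tween-20; 10-point 3-fold dilutions, NSB with 1 μM Gcg.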
# human GLP-1R = target: T2, human GLP-1R (Homo sapiens, UniProt P43220); assay: [125I]-GLP-1 binding, SPA with WGA beads, 0.1% bacitracin; settings: geometric mean, read-out: hGLP1R Ki
# T2 construct: expressed in transfected cells; crude membranes
# Summary of the method: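 Binding buffer was 25 mM HEPES pH 7.4 with 2.5 mM CaCl2, 1 mM MgCl2, 0.1% (w/v) bacitracin, 0.003% Tween-20 and EDTA-free protease inhibitors. Four-parameter regression gave IC50, converted to Ki (geometric mean, SEM, n independent days).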
# T1 sequence (P47871 26-477): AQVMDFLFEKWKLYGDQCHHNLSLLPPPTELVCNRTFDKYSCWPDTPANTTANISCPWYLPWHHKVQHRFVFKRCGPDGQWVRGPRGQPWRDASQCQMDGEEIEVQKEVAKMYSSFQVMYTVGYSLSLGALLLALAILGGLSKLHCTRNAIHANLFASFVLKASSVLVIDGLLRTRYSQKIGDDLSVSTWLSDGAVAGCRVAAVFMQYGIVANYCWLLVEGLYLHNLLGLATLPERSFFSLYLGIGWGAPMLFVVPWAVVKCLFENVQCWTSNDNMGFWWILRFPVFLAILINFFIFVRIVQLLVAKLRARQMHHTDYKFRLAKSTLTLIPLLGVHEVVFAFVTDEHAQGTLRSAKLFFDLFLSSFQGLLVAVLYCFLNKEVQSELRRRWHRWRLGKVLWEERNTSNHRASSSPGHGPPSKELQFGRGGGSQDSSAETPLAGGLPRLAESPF
# T2 sequence (P43220 24-463): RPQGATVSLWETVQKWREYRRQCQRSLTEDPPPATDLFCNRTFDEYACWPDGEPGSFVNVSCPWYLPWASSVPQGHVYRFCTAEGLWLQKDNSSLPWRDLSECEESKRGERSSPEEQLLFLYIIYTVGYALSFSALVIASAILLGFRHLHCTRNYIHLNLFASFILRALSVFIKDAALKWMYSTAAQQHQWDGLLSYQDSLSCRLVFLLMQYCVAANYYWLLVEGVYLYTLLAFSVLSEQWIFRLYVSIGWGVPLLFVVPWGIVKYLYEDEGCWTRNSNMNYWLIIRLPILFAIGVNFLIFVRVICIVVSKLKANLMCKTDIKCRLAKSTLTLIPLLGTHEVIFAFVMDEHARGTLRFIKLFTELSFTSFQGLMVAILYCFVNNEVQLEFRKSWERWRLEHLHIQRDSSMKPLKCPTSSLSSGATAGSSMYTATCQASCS
Compound,Ki (human GcgR) [µM],Ki (human GLP-1R) [µM]
CC[C@H](C)[C@H](NC(=O)[C@H](Cc1ccccc1)NC(=O)[C@@H](NC(=O)CNC(=O)[C@H](CCC(=O)O)NC(=O)C(C)(C)NC(=O)[C@@H](N)Cc1ccc(O)cc1)[C@@H](C)O)C(=O)N[C@@H](CO)C(=O)N[C@@H](CC(=O)O)C(=O)N[C@@H](Cc1ccc(O)cc1)C(=O)N[C@@H](CO)C(=O)N[C@H](C(=O)N[C@@](C)(CC(C)C)C(=O)N[C@@H](CC(C)C)C(=O)N[C@@H](CC(=O)O)C(=O)N[C@@H](CCCCN)C(=O)N[C@@H](CCCCNC(=O)COCCOCCNC(=O)COCCOCCNC(=O)CC[C@H](NC(=O)CCCCCCCCCCCCCCCCCCC(=O)O)C(=O)O)C(=O)N[C@@H](Cc1c[nH]cn1)C(=O)N[C@@H](CCC(N)=O)C(=O)NC(C)(C)C(=O)N[C@@H](CCC(=O)O)C(=O)N[C@@H](Cc1ccccc1)C(=O)N[C@H](C(=O)N[C@@H](CCC(=O)O)C(=O)N[C@@H](Cc1ccc(O)cc1)C(=O)N[C@@H](CC(C)C)C(=O)N[C@@H](CC(C)C)C(=O)N[C@@H](CCC(=O)O)C(=O)N[C@H](C(=O)NCC(=O)N1CCC[C@H]1C(=O)N[C@@H](CO)C(=O)N[C@@H](CO)C(=O)NCC(=O)N[C@@H](C)C(=O)N1CCC[C@H]1C(=O)N1CCC[C@H]1C(=O)N1CCC[C@H]1C(=O)N[C@@H](CO)C(N)=O)[C@@H](C)O)C(C)C)[C@@H](C)CC [Example 64] (H-Y[Aib]EGTFISDYSI[αMeL]LDKK([AEEA-AEEA-γGlu-C20 diacid])HQ[Aib]EFVEYLLETGPSSGAPPPS-NH2),0.196,0.477
CC[C@H](C)[C@H](NC(=O)[C@H](CO)NC(=O)[C@H](Cc1ccc(O)cc1)NC(=O)[C@H](CC(=O)O)NC(=O)[C@H](CO)NC(=O)[C@@H](NC(=O)[C@](C)(Cc1ccccc1F)NC(=O)[C@@H](NC(=O)CNC(=O)[C@H](CCC(=O)O)NC(=O)C(C)(C)NC(=O)[C@@H](N)Cc1ccc(O)cc1)[C@@H](C)O)[C@@H](C)CC)C(=O)N[C@@H](C)C(=O)N[C@@H](CC(C)C)C(=O)N[C@@H](CC(=O)O)C(=O)N[C@@H](CCCCN)C(=O)N[C@@H](CCCCNC(=O)COCCOCCNC(=O)COCCOCCNC(=O)CC[C@H](NC(=O)CCCCCCCCCCCCCCCCCCC(=O)O)C(=O)O)C(=O)N[C@@H](Cc1c[nH]cn1)C(=O)N[C@@H](CCC(N)=O)C(=O)NC(C)(C)C(=O)N[C@@H](CCC(=O)O)C(=O)N[C@@H](Cc1ccccc1)C(=O)N[C@H](C(=O)N[C@@H](CC(N)=O)C(=O)N[C@@H](Cc1ccc(O)cc1)C(=O)N[C@@H](CC(C)C)C(=O)N[C@@H](CC(C)C)C(=O)N[C@@H](C)C(=O)N[C@H](C(=O)NCC(=O)N1CCC[C@H]1C(=O)N[C@@H](CO)C(=O)N[C@@H](CO)C(=O)NCC(=O)N[C@@H](C)C(=O)N1CCC[C@H]1C(=O)N1CCC[C@H]1C(=O)N1CCC[C@H]1C(=O)N[C@@H](CO)C(N)=O)[C@@H](C)O)C(C)C [Example 34] (H-Y[Aib]EGT[αMePhe(2-F)]ISDYSIALDKK([AEEA-AEEA-γGlu-C20 diacid])HQ[Aib]EFVNYLLATGPSSGAPPPS-NH2),0.143,0.201
CC[C@H](C)[C@H](NC(=O)[C@H](Cc1ccccc1)NC(=O)[C@@H](NC(=O)CNC(=O)[C@H](CCC(=O)O)NC(=O)C(C)(C)NC(=O)[C@@H](N)Cc1ccc(O)cc1)[C@@H](C)O)C(=O)N[C@@H](CO)C(=O)N[C@@H](CC(=O)O)C(=O)N[C@@H](Cc1ccc(O)cc1)C(=O)N[C@@H](CO)C(=O)N[C@H](C(=O)N[C@@](C)(CC(C)C)C(=O)N[C@@H](CC(C)C)C(=O)N[C@@H](CC(=O)O)C(=O)N[C@@H](CCCCN)C(=O)N[C@@H](CCCCNC(=O)COCCOCCNC(=O)COCCOCCNC(=O)CC[C@H](NC(=O)CCCCCCCCCCCCCCCCCCC(=O)O)C(=O)O)C(=O)N[C@@H](Cc1c[nH]cn1)C(=O)N[C@@H](CCC(N)=O)C(=O)NC(C)(C)C(=O)N[C@@H](CCC(=O)O)C(=O)N[C@@H](Cc1ccccc1)C(=O)N[C@H](C(=O)N[C@@H](CCC(=O)O)C(=O)N[C@@H](Cc1ccncc1)C(=O)N[C@@H](CC(C)C)C(=O)N[C@@H](CC(C)C)C(=O)N[C@@H](C)C(=O)N[C@H](C(=O)NCC(=O)N1CCC[C@H]1C(=O)N[C@@H](CO)C(=O)N[C@@H](CO)C(=O)NCC(=O)N[C@@H](C)C(=O)N1CCC[C@H]1C(=O)N1CCC[C@H]1C(=O)N1CCC[C@H]1C(=O)N[C@@H](CO)C(N)=O)[C@@H](C)O)C(C)C)[C@@H](C)CC [Example 58] (H-Y[Aib]EGTFISDYSI[αMeL]LDKK([AEEA-AEEA-γGlu-C20 diacid])HQ[Aib]EFVE[4Pal]LLATGPSSGAPPPS-NH2),0.418,0.459
CC[C@H](C)[C@H](NC(=O)[C@H](Cc1ccccc1)NC(=O)[C@@H](NC(=O)CNC(=O)[C@H](CCC(=O)O)NC(=O)C(C)(C)NC(=O)[C@@H](N)Cc1ccc(O)cc1)[C@@H](C)O)C(=O)N[C@@H](CO)C(=O)N[C@@H](CC(=O)O)C(=O)N[C@@H](Cc1ccc(O)cc1)C(=O)N[C@@H](CO)C(=O)N[C@H](C(=O)N[C@@](C)(CC(C)C)C(=O)N[C@@H](CC(C)C)C(=O)N[C@@H](CC(=O)O)C(=O)N[C@@H](CCCCN)C(=O)N[C@@H](CCCCNC(=O)COCCOCCNC(=O)COCCOCCNC(=O)CC[C@H](NC(=O)CCCCCCCCCCCCCCCCCCC(=O)O)C(=O)O)C(=O)N[C@@H](Cc1c[nH]cn1)C(=O)N[C@@H](CCC(N)=O)C(=O)NC(C)(C)C(=O)N[C@@H](CC(=O)O)C(=O)N[C@@H](Cc1ccccc1)C(=O)N[C@H](C(=O)N[C@@H](CCC(=O)O)C(=O)N[C@@H](Cc1ccc(O)cc1)C(=O)N[C@@H](CC(C)C)C(=O)N[C@@H](CC(C)C)C(=O)N[C@@H](C)C(=O)NCC(=O)NCC(=O)N1CCC[C@H]1C(=O)N[C@@H](CO)C(=O)N[C@@H](CO)C(=O)NCC(=O)N[C@@H](C)C(=O)N1CCC[C@H]1C(=O)N1CCC[C@H]1C(=O)N1CCC[C@H]1C(=O)N[C@@H](CO)C(N)=O)C(C)C)[C@@H](C)CC [Example 53] (H-Y[Aib]EGTFISDYSI[αMeL]LDKK([AEEA-AEEA-γGlu-C20 diacid])HQ[Aib]DFVEYLLAGGPSSGAPPPS-NH2),0.152,0.0629
CC[C@H](C)[C@H](NC(=O)[C@H](Cc1ccccc1)NC(=O)[C@@H](NC(=O)CNC(=O)[C@H](CCC(=O)O)NC(=O)C(C)(C)NC(=O)[C@@H](N)Cc1ccc(O)cc1)[C@@H](C)O)C(=O)N[C@@H](CO)C(=O)N[C@@H](CC(=O)O)C(=O)N[C@@H](Cc1ccc(O)cc1)C(=O)N[C@@H](CO)C(=O)N[C@H](C(=O)N[C@@](C)(CC(C)C)C(=O)N[C@@H](CC(C)C)C(=O)N[C@@H](CC(=O)O)C(=O)N[C@@H](CCCCN)C(=O)N[C@@H](CCCCNC(=O)COCCOCCNC(=O)COCCOCCNC(=O)CC[C@H](NC(=O)CCCCCCCCCCCCCCCCCCC(=O)O)C(=O)O)C(=O)N[C@@H](Cc1c[nH]cn1)C(=O)N[C@@H](CCC(N)=O)C(=O)NC(C)(C)C(=O)N[C@@H](CC(=O)O)C(=O)N[C@@H](Cc1ccccc1)C(=O)N[C@H](C(=O)N[C@@H](CCC(=O)O)C(=O)N[C@@H](Cc1ccncc1)C(=O)N[C@@H](CC(C)C)C(=O)N[C@@H](CC(C)C)C(=O)N[C@@H](C)C(=O)NCC(=O)NCC(=O)N1CCC[C@H]1C(=O)N[C@@H](CO)C(=O)N[C@@H](CO)C(=O)NCC(=O)N[C@@H](C)C(=O)N1CCC[C@H]1C(=O)N1CCC[C@H]1C(=O)N1CCC[C@H]1C(=O)N[C@@H](CO)C(N)=O)C(C)C)[C@@H](C)CC [Example 48],0.267,0.211
CC[C@H](C)[C@H](NC(=O)[C@H](CO)NC(=O)[C@H](Cc1ccc(O)cc1)NC(=O)[C@H](CC(=O)O)NC(=O)[C@H](CO)NC(=O)[C@@H](NC(=O)[C@](C)(CC)NC(=O)[C@@H](NC(=O)CNC(=O)[C@H](CCC(=O)O)NC(=O)C(C)(C)NC(=O)[C@@H](N)Cc1ccc(O)cc1)[C@@H](C)O)[C@@H](C)CC)C(=O)N[C@@](C)(CC(C)C)C(=O)N[C@@H](CC(C)C)C(=O)N[C@@H](CC(=O)O)C(=O)N[C@@H](CCCCN)C(=O)N[C@@H](CCCCNC(=O)COCCOCCNC(=O)COCCOCCNC(=O)CC[C@H](NC(=O)CCCCCCCCCCCCCCCCCCC(=O)O)C(=O)O)C(=O)N[C@@H](Cc1c[nH]cn1)C(=O)N[C@@H](CCC(N)=O)C(=O)NC(C)(C)C(=O)N[C@@H](CC(=O)O)C(=O)N[C@@H](Cc1ccccc1)C(=O)N[C@H](C(=O)N[C@@H](CCC(=O)O)C(=O)N[C@@H](Cc1ccncc1)C(=O)N[C@@H](CC(C)C)C(=O)N[C@@H](CC(C)C)C(=O)N[C@@H](C)C(=O)NCC(=O)NCC(=O)N1CCC[C@H]1C(=O)N[C@@H](CO)C(=O)N[C@@H](CO)C(=O)NCC(=O)N[C@@H](C)C(=O)N1CCC[C@H]1C(=O)N1CCC[C@H]1C(=O)N1CCC[C@H]1C(=O)N[C@@H](CO)C(N)=O)C(C)C [Example 55] (H-Y[Aib]EGT[Iva]ISDYSI[αMeL]LDKK([AEEA-AEEA-γGlu-C20 diacid])HQ[Aib]DFVE[4Pal]LLAGGPSSGAPPPS-NH2),> 0.96,0.262
CC[C@H](C)[C@H](NC(=O)[C@H](CO)NC(=O)[C@H](Cc1ccc(O)cc1)NC(=O)[C@H](CC(=O)O)NC(=O)[C@H](CO)NC(=O)[C@@H](NC(=O)[C@H](CC(C)C)NC(=O)[C@@H](NC(=O)CNC(=O)[C@H](CCC(=O)O)NC(=O)[C@@H](C)NC(=O)[C@@H](N)Cc1ccc(O)cc1)[C@@H](C)O)[C@@H](C)CC)C(=O)N[C@@H](CC(C)C)C(=O)N[C@@H](CC(C)C)C(=O)N[C@@H](CC(=O)O)C(=O)N[C@@H](CCCCN)C(=O)N[C@@H](CCCCNC(=O)COCCOCCNC(=O)COCCOCCNC(=O)CC[C@H](NC(=O)CCCCCCCCCCCCCCCCC(=O)O)C(=O)O)C(=O)N[C@@H](C)C(=O)N[C@@H](CCC(N)=O)C(=O)NC(C)(C)C(=O)N[C@@H](CC(=O)O)C(=O)N[C@@H](Cc1ccccc1)C(=O)N[C@H](C(=O)N[C@@H](CC(N)=O)C(=O)N[C@@H](Cc1c[nH]c2ccccc12)C(=O)N[C@@H](CC(C)C)C(=O)N[C@@H](CC(C)C)C(=O)N[C@@H](C)C(=O)N[C@@H](CCC(N)=O)C(=O)NCC(=O)N1CCC[C@H]1C(=O)N[C@@H](CO)C(=O)N[C@@H](CO)C(=O)NCC(=O)N[C@@H](C)C(=O)N1CCC[C@H]1C(=O)N1CCC[C@H]1C(=O)N1CCC[C@H]1C(=O)N[C@@H](CO)C(N)=O)C(C)C [Example 32] (H-Y[dA]EGTLISDYSILLDKK([AEEA-AEEA-γGlu-C18 diacid])AQ[Aib]DFVNWLLAQGPSSGAPPPS-NH2),> 0.959,0.0852
